The test system of this experiment is A549 human non-small cell lung cancer xenografts. In words: Antitumor effect of single-dose ^125I-NM404 on tumor volume in SCID mice bearing A549 xenografts. The class given is in vivo. The settings on record: for effect on tumor volume compared to control animals: up to 10 weeks post-injection. An excerpt: FIG. 2, illustrates antitumor effect of single-dose treatment with ^125I-125-NM404 at doses of 50 (⊚), 150 (□), 250 (⋄) and 500 (∘) μCi in SCID mice bearing A549 human non-small cell lung cancer xenografts. In this figure, control animals show rapidly growing tumors over the 10-week assessment period.
FIG. 2 summarizes investigations into the efficacy of ^125I-NM404 treatment. These investigations provided assessments of tumor volume were made until 10 weeks post-injection or until no animal in the control group is alive, whatever came first. Summarizing the results, control animals show rapidly growing tumors over the 10-week assessment period. […] Tumor volumes are stable and same tumors appear “collapsed” (the tumor surface has caved in). Additionally, FIG. 3 illustrates that hair above the tumors fell off confirming substantial accumulation of radioactivity in these tumors.

Regarding `C[N+](C)(C)CCOP(=O)([O-])OCCCCCCCCCCCCCCCCCCc1ccc([125I])cc1` [^125I-NM404], the “effect on the tumor (appearance)” value (250 μCi, 4 weeks following injection) is listed as “causes central necrosis”. For the same compound, where the note is “doses 50-500 μCi”, the “dose dependence of effect on tumor volume” value was “dose-linear effect”. Besides, the tumor therapy efficacy entry (following single injection and fractionated dosing) is listed as “effective tumor therapy treatment”. For the same compound, the “effect on tumor volume compared to control animals” value (single dose 50 μCi) is on record as “did not show any difference”; the “effect on tumor volume compared to control animals” value (single dose 250 μCi) was “substantial and prolonged treatment effect”; the “effect on tumor volume compared to control animals” value (single dose 500 μCi) was “substantial and prolonged treatment effect”.
